From US20090246292A1, “ANTIMICROBIAL FORMULATIONS COMPRISING A QUINONE AND A COPPER SALT” (priority 2006, published 2009)
Where two headings read alike, the source gives them in different places.

Assays:
S. aureus ATCC 29213 [1] = test: Minimum bactericidal concentration (MBC) assay; type: cell-based, Staphylococcus aureus
Protocol: (§1) (b) Minimum Bactericidal Concentration (MBC) Assay
(§2) Following incubation they were examined visually for bacterial growth.

P. acnes NCTC 737 [2] = test: Disc diffusion assay (DDA), also supplemented;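 also: paper disc carrying compound placed on inoculated Wilkins-Chalgren Anaerobe agar pH 6.0, with lipid or NaCl supplement where listed, anaerobic 37 °C for 72 h, inhibition zone diameter read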
S. aureus ATCC 29213 [3] = test: Minimum inhibitory concentration (MIC) assay; type: cell-based, Staphylococcus aureus
Text: (§3) (a) Minimum Inhibitory Concentration (MIC) Assay
(§4) The culture media were as described above.
(§5) The assays included both negative (culture medium with no micro-organisms) and positive (culture medium plus diluting solvent plus micro-organism) controls.

P. acnes NCTC 737 [4] = test: Minimum bactericidal concentration (MBC) assay; type: cell-based, Propionibacterium acnes
Protocol: as §1, §2

S. aureus ATCC 29213 [5] = test: Synergy disc diffusion assay (SDDA), also supplemented;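 also: disc diffusion on Mueller-Hinton agar at pH 7.2, aerobic incubation at 37 °C lasting 19-20 h, two compounds assessed jointly for combined antimicrobial effect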
Protocol: (e) Synergy Disc Diffusion Assay (SDDA)
This is a variation on the DDA method, in which two compounds are tested together for their combined antimicrobial activity.
Two test compounds A and B were placed on a single paper disc and the above described DDA procedure repeated.
(f) Supplemented Disc Diffusion Assays
For assays using S. aureus ATCC 29213 the supplements used were sodium chloride (100 mM), lipid (Tween™ 80 at 1% v/v) and horse serum (5% v/v).

P. acnes NCTC 737 [6] = test: as above
S. aureus ATCC 29213 [7] = test: Disc diffusion assay (DDA), also supplemented
P. acnes NCTC 737 [8] = test: Minimum inhibitory concentration (MIC) assay; type: cell-based, Propionibacterium acnes
Text: as §3, §4, §5

[9] = copper salt alone, S. aureus ATCC 29213
[10] = copper salt alone, 200 μg per disc (silicate 62 μg), 1% (v/v) Tween 80
[11] = copper salt alone, 200 μg per disc (silicate 62 μg), salt and 1% (v/v) Tween 80
[12] = copper salt alone, 200 μg per disc (silicate 62 μg), sodium chloride (100 mM)
[13] = copper salt alone, P. acnes NCTC 737
[14] = copper salt + TBHQ on one disc, 200 μg of each (silicate 62 μg), salt and serum supplements
[15] = copper salt + TBHQ on one disc, 200 μg of each (silicate 62 μg), unsupplemented
[16] = copper salt + TBHQ vs larger zone of either compound alone, unsupplemented
[17] = copper salt + TBHQ, salt and serum supplements
[18] = copper salt + TBHQ, unsupplemented
[19] = copper salt + TBHQ on one disc, 200 μg of each (silicate 62 μg), salt and lipid (1% (v/v) Tween 80)
[20] = copper salt + TBHQ, salt and lipid (1% (v/v) Tween 80)
[21] = copper salt alone, 200 μg per disc (silicate 62 μg), Tween 80 at 1% v/v
[22] = copper salt alone, 200 μg per disc (silicate 62 μg), salt and horse serum (5% v/v)

CC(=O)[O-].[Cu+] [Copper (I) acetate]
MBC (S. aureus ATCC 29213 [1]): >250 mg/L | DDA (P. acnes NCTC 737 [2]): 52.04 mm | DDA + lipid (P. acnes NCTC 737 [2]): 45.46 mm | DDA + salt (P. acnes NCTC 737 [2]): 49.48 mm | DDA + salt & lipid (P. acnes NCTC 737 [2]): 52.15 mm | MIC (S. aureus ATCC 29213 [3]): >250 µg/mL | MBC (P. acnes NCTC 737 [4]): 31.25 mg/L | SDDA area increase (S. aureus ATCC 29213 [5]): 16.25% | SDDA increase (S. aureus ATCC 29213 [5]): 3.16 mm | SDDA with TBHQ (S. aureus ATCC 29213 [5]): 43.58 mm | SS SDDA area increase (S. aureus ATCC 29213 [5]): −51.82% | SS SDDA increase (S. aureus ATCC 29213 [5]): −13.36 mm | SS SDDA with TBHQ (S. aureus ATCC 29213 [5]): 30.32 mm | SDDA area increase (P. acnes NCTC 737 [6]): 84.62% | SDDA increase (P. acnes NCTC 737 [6]): 18.67 mm | SDDA with TBHQ (P. acnes NCTC 737 [6]): 70.71 mm | SL SDDA area increase (P. acnes NCTC 737 [6]): 59.77% | SL SDDA increase (P. acnes NCTC 737 [6]): 13.77 mm | SL SDDA with TBHQ (P. acnes NCTC 737 [6]): 65.91 mm | DDA (S. aureus ATCC 29213 [7]): 0 mm | DDA + lipid (S. aureus ATCC 29213 [7]): 0 mm | DDA + salt (S. aureus ATCC 29213 [7]): 0 mm | DDA + salt & serum (S. aureus ATCC 29213 [7]): 0 mm | MIC (P. acnes NCTC 737 [8]): 7.8 mg/L | MIC/MBC ratio (P. acnes NCTC 737 [8]): 0.25

[Cu][Br] [Copper (I) bromide]
MBC (S. aureus ATCC 29213 [1]; [9]): >250 mg/L | DDA + lipid (P. acnes NCTC 737 [2]; [10]): 43.92 mm | DDA + salt & lipid (P. acnes NCTC 737 [2]; [11]): 43.70 mm | DDA + salt (P. acnes NCTC 737 [2]; [12]): 29.38 mm | MIC (S. aureus ATCC 29213 [3]; [9]): >250 µg/mL | MBC (P. acnes NCTC 737 [4]; [13]): 125 mg/L | SS SDDA with TBHQ (S. aureus ATCC 29213 [5]; [14]): 46.42 mm | SDDA with TBHQ (S. aureus ATCC 29213 [5]; [15]): 55.37 mm | SDDA increase (S. aureus ATCC 29213 [5]; [16]): 14.95 mm | SS SDDA area increase (S. aureus ATCC 29213 [5]; [17]): 12.94% | SS SDDA increase (S. aureus ATCC 29213 [5]; [17]): 2.74 mm | SDDA area increase (S. aureus ATCC 29213 [5]; [18]): 87.65% | SL SDDA with TBHQ (P. acnes NCTC 737 [6]; [19]): 56.01 mm | SDDA with TBHQ (P. acnes NCTC 737 [6]; [15]): 54.65 mm | SDDA increase (P. acnes NCTC 737 [6]; [16]): 15.44 mm | SL SDDA area increase (P. acnes NCTC 737 [6]; [20]): 64.26% | SL SDDA increase (P. acnes NCTC 737 [6]; [20]): 12.31 mm | SDDA area increase (P. acnes NCTC 737 [6]; [18]): 94.26% | DDA + lipid (S. aureus ATCC 29213 [7]; [21]): 0 mm | DDA + salt & serum (S. aureus ATCC 29213 [7]; [22]): 0 mm | DDA + salt (S. aureus ATCC 29213 [7]; [12]): 0 mm | MIC (P. acnes NCTC 737 [8]; [13]): 15.6 mg/L | MIC/MBC ratio (P. acnes NCTC 737 [8]; [13]): 0.125

[Cu+].[I-] [Copper (I) iodide]
MBC (S. aureus ATCC 29213 [1]; [9]): >250 mg/L | DDA + lipid (P. acnes NCTC 737 [2]; [10]): 34.64 mm | DDA + salt & lipid (P. acnes NCTC 737 [2]; [11]): 46.20 mm | DDA + salt (P. acnes NCTC 737 [2]; [12]): 43.92 mm | MIC (S. aureus ATCC 29213 [3]; [9]): >250 µg/mL | MBC (P. acnes NCTC 737 [4]; [13]): 31.25 mg/L | SS SDDA with TBHQ (S. aureus ATCC 29213 [5]; [14]): 45.26 mm | SDDA with TBHQ (S. aureus ATCC 29213 [5]; [15]): 52.74 mm | SDDA increase (S. aureus ATCC 29213 [5]; [16]): 12.32 mm | SS SDDA area increase (S. aureus ATCC 29213 [5]; [17]): 7.37% | SS SDDA increase (S. aureus ATCC 29213 [5]; [17]): 1.58 mm | SDDA area increase (S. aureus ATCC 29213 [5]; [18]): 70.25% | SL SDDA with TBHQ (P. acnes NCTC 737 [6]; [19]): 64.77 mm | SDDA with TBHQ (P. acnes NCTC 737 [6]; [15]): 70.08 mm | SDDA increase (P. acnes NCTC 737 [6]; [16]): 21.48 mm | SL SDDA area increase (P. acnes NCTC 737 [6]; [20]): 96.51% | SL SDDA increase (P. acnes NCTC 737 [6]; [20]): 18.56 mm | SDDA area increase (P. acnes NCTC 737 [6]; [18]): 107.92% | DDA + lipid (S. aureus ATCC 29213 [7]; [21]): 0 mm | DDA + salt & serum (S. aureus ATCC 29213 [7]; [22]): 0 mm | DDA + salt (S. aureus ATCC 29213 [7]; [12]): 0 mm | MIC (P. acnes NCTC 737 [8]; [13]): 7.8 mg/L | MIC/MBC ratio (P. acnes NCTC 737 [8]; [13]): 0.25

CC(=O)[O-].CC(=O)[O-].[Cu+2] [Copper (II) acetate]
MBC (S. aureus ATCC 29213 [1]): >250 mg/L | DDA (P. acnes NCTC 737 [2]): 53.61 mm | DDA + lipid (P. acnes NCTC 737 [2]): 42.06 mm | DDA + salt (P. acnes NCTC 737 [2]): 48.25 mm | DDA + salt & lipid (P. acnes NCTC 737 [2]): 49.54 mm | MIC (S. aureus ATCC 29213 [3]): >250 µg/mL | MBC (P. acnes NCTC 737 [4]): 31.25 mg/L | SDDA area increase (S. aureus ATCC 29213 [5]): 1.59% | SDDA increase (S. aureus ATCC 29213 [5]): 0.32 mm | SDDA with TBHQ (S. aureus ATCC 29213 [5]): 40.74 mm | SS SDDA area increase (S. aureus ATCC 29213 [5]): −57.34% | SS SDDA increase (S. aureus ATCC 29213 [5]): −15.15 mm | SS SDDA with TBHQ (S. aureus ATCC 29213 [5]): 28.53 mm | SDDA area increase (P. acnes NCTC 737 [6]): 56% | SDDA increase (P. acnes NCTC 737 [6]): 13.35 mm | SDDA with TBHQ (P. acnes NCTC 737 [6]): 66.96 mm | SL SDDA area increase (P. acnes NCTC 737 [6]): 64.92% | SL SDDA increase (P. acnes NCTC 737 [6]): 14.08 mm | SL SDDA with TBHQ (P. acnes NCTC 737 [6]): 63.62 mm | DDA (S. aureus ATCC 29213 [7]): 0 mm | DDA + lipid (S. aureus ATCC 29213 [7]): 0 mm | DDA + salt (S. aureus ATCC 29213 [7]): 0 mm | DDA + salt & serum (S. aureus ATCC 29213 [7]): 0 mm | MIC (P. acnes NCTC 737 [8]): 7.8 mg/L | MIC/MBC ratio (P. acnes NCTC 737 [8]): 0.25

CC(=O)Oc1ccccc1C(=O)[O-].CC(=O)Oc1ccccc1C(=O)[O-].CC(=O)Oc1ccccc1C(=O)[O-].CC(=O)Oc1ccccc1C(=O)[O-].[Cu+2].[Cu+2] [Copper (II) aspirinate]
MBC (S. aureus ATCC 29213 [1]; [9]): >250 mg/L | DDA (P. acnes NCTC 737 [2]): 44.32 mm | DDA + lipid (P. acnes NCTC 737 [2]; [10]): 36.19 mm | DDA + salt & lipid (P. acnes NCTC 737 [2]; [11]): 47.45 mm | DDA + salt (P. acnes NCTC 737 [2]; [12]): 40.21 mm | MIC (S. aureus ATCC 29213 [3]; [9]): 125 µg/mL | MIC/MBC ratio (S. aureus ATCC 29213 [3]; [9]): <0.5 | MBC (P. acnes NCTC 737 [4]; [13]): 62.5 mg/L | SS SDDA with TBHQ (S. aureus ATCC 29213 [5]; [14]): 56.95 mm | SDDA with TBHQ (S. aureus ATCC 29213 [5]; [15]): 69.05 mm | SDDA increase (S. aureus ATCC 29213 [5]; [16]): 28.63 mm | SS SDDA area increase (S. aureus ATCC 29213 [5]; [17]): 69.99% | SS SDDA increase (S. aureus ATCC 29213 [5]; [17]): 13.27 mm | SDDA area increase (S. aureus ATCC 29213 [5]; [18]): 191.83% | SL SDDA with TBHQ (P. acnes NCTC 737 [6]; [19]): 58.93 mm | SDDA with TBHQ (P. acnes NCTC 737 [6]; [15]): 60.80 mm | SDDA increase (P. acnes NCTC 737 [6]; [16]): 16.48 mm | SL SDDA area increase (P. acnes NCTC 737 [6]; [20]): 54.20% | SL SDDA increase (P. acnes NCTC 737 [6]; [20]): 11.47 mm | SDDA area increase (P. acnes NCTC 737 [6]; [18]): 88.19% | DDA (S. aureus ATCC 29213 [7]): 0 mm | DDA + lipid (S. aureus ATCC 29213 [7]; [21]): 0 mm | DDA + salt & serum (S. aureus ATCC 29213 [7]; [22]): 0 mm | DDA + salt (S. aureus ATCC 29213 [7]; [12]): 0 mm | MIC (P. acnes NCTC 737 [8]; [13]): 15.6 mg/L

O=S(=O)([O-])[O-].[Cu+2] [Copper (II) sulphate, copper (II) sulphate]
MBC (S. aureus ATCC 29213 [1]): 1000 mg/L | (S)DDA (P. acnes NCTC 737 [2]): 51.73 (±1.48) mm | SL (S)DDA (P. acnes NCTC 737 [2]): 51.10 (±3.17) mm | MIC (S. aureus ATCC 29213 [3]): 1000 μml | MIC/MBC ratio (S. aureus ATCC 29213 [3]): 1 | MBC (P. acnes NCTC 737 [4]): 31.25 mg/L | (S)DDA (S. aureus ATCC 29213 [7]): 0 mm | SS (S)DDA (S. aureus ATCC 29213 [7]): 0 mm | activity of copper salt alone (in words) (S. aureus ATCC 29213 [7]): inactive | MIC (P. acnes NCTC 737 [8]): 15.6 mg/L | MIC/MBC ratio (P. acnes NCTC 737 [8]): 0.5
